According to publication PMC9501899 (Journal of the American Chemical Society, 2022):
Like-named read-outs stand apart in the source and are kept apart here.

How the values were obtained:
WT LRRK2 = biological target: T1, WT LRRK2 (Mus musculus, UniProt Q5S006); assay: LRRK2 degradation in WT MEFs by Western blotting; format: cell-based
T1 construct: endogenous in cells; host or cells: wild-type primary MEFs
Procedure: (§1) These PROTACs were then biologically evaluated in mouse embryonic fibroblasts (MEFs) by Western blotting. Briefly, MEFs were treated with compounds at 33 nM and 1 μM for 4 h (Figure 2) and 24 h (Figure S2) separately, and the intracellular level of LRRK2, phosphorylated LRRK2 at Ser935, and phosphorylated Rab10 (pRab10) at Thr73 was determined. Rab10[5],[49] is one of the bona fide substrates of LRRK2, whose phosphorylation status is directly affected by the LRRK2 kinase activity and protein level. Phosphorylation of LRRK2 at Ser935 is a well-studied biomarker site used to assess the efficacy of type 1 LRRK2 inhibitors.[30]
(§2) Primary MEFs were generated as described in a previous study.[80] Briefly, the uterine horn was collected from adult female mice at day E12.5 and transferred to a 10 cm tissue culture dish containing cold PBS. Two forceps were used to tear the yolk sacs to isolate each embryo. Forceps were cleaned thoroughly with 70% ethanol between each embryo isolation. The embryos were culled, and a tissue piece was collected in a polymerase chain reaction (PCR) tube for genotyping. The red tissue of the embryo was removed, and the remainder was minced with a scalpel blade and incubated with a 7.5 mL trypsin–ethylenediaminetetraacetic acid (EDTA) solution for 10 min in a 37 °C, 5% CO2 tissue culture incubator. The dish was removed from the incubator and checked under a light microscope for single cells. Complete media (7.5 mL) was added to the trypsinized cells, and the cell suspension was transferred to a 15 mL Falcon tube and centrifuged at 1200 rpm for 5 min at room temperature. The trypsin was aspirated, the cell pellet was resuspended in a 5 mL fresh complete media, and the cell suspension was plated in a 60 mm tissue culture dish and incubated in a 37 °C, 5% CO2 tissue culture incubator. The MEFs at this stage were considered as passage 0 and were passaged and expanded for experimental use once the genotype was confirmed by allelic sequencing and immunoblotting. MEFs were cultured in Dulbecco’s modified Eagle’s medium (DMEM) containing 10% (v/v) fetal bovine serum (FBS), 2 mM L-glutamine, 100 U/mL penicillin, and 100 μg/mL streptomycin supplemented with 1× nonessential amino acids and 1 mM sodium pyruvate.
(§3) Culturing and passaging of adherent cell lines were carried out using an aseptic technique in CL1 or CL2 (for PBMC isolation) biological safety cabinets. All cells were incubated in a 37 °C incubator with 5% CO2. Cell lines were regularly tested for mycoplasma contamination. For Western blot assay, the cells were seeded in six-well plates. For immunoprecipitation of LRRK2, SH-SY5Y cells (cultured in DMEM-F12, supplemented with 15% (v/v) FBS, 100 U/mL penicillin and 100 μg/mL streptomycin, 1× nonessential amino acids, and 1 mM sodium pyruvate) were seeded in a 10 cm dish. All cells were treated with the indicated compounds such that the final concentration of DMSO was 0.1%. Following the treatment of cells with compounds at indicated concentrations and time periods, the media was removed and the cells were washed with PBS and lysed in a 100 μL ice-cold complete lysis buffer containing 50 mM tris–HCl pH 7.4, 1 mM EGTA, 10 mM 2-glycerophosphate, 50 mM sodium fluoride, 5 mM sodium pyrophosphate, 270 mM sucrose, supplemented with 1 μg/mL microcystin-LR, 1 mM sodium orthovanadate, complete EDTA-free protease inhibitor cocktail (Roche), and 1% (v/v) Triton X-100. The cells were immediately placed on ice and were scraped and collected into 1.5 mL Eppendorf tubes. Cell lysates were incubated on ice for 10 min prior to centrifugation at 15 000g at 4 °C for 15 min.

G2019S LRRK2 = biological target: T2, G2019S LRRK2 (Mus musculus, UniProt Q5S006, G2019S); assay: LRRK2 degradation in G2019S LRRK2 MEFs by Western blotting; format: cell-based; details: for Dmax: dose-dependent degradation
T2 construct: endogenous in cells; host or cells: G2019S LRRK2 MEFs
Procedure: as §1, §2, §3

Rab10-pThr73 [1] = assay: Rab10 dephosphorylation in WT MEFs by Western blotting; format: cell-based, mouse
Procedure: as §1, §2, §3

Rab10-pThr73 [2] = assay: Rab10 dephosphorylation in G2019S LRRK2 MEFs by Western blotting; format: cell-based, mouse
Procedure: as §1, §2, §3

[3] = Mus musculus, 4 h, G2019S LRRK2 MEFs, read-out: EC50 G2019S pRab10

T2 sequence (Q5S006 whole entry G2019S): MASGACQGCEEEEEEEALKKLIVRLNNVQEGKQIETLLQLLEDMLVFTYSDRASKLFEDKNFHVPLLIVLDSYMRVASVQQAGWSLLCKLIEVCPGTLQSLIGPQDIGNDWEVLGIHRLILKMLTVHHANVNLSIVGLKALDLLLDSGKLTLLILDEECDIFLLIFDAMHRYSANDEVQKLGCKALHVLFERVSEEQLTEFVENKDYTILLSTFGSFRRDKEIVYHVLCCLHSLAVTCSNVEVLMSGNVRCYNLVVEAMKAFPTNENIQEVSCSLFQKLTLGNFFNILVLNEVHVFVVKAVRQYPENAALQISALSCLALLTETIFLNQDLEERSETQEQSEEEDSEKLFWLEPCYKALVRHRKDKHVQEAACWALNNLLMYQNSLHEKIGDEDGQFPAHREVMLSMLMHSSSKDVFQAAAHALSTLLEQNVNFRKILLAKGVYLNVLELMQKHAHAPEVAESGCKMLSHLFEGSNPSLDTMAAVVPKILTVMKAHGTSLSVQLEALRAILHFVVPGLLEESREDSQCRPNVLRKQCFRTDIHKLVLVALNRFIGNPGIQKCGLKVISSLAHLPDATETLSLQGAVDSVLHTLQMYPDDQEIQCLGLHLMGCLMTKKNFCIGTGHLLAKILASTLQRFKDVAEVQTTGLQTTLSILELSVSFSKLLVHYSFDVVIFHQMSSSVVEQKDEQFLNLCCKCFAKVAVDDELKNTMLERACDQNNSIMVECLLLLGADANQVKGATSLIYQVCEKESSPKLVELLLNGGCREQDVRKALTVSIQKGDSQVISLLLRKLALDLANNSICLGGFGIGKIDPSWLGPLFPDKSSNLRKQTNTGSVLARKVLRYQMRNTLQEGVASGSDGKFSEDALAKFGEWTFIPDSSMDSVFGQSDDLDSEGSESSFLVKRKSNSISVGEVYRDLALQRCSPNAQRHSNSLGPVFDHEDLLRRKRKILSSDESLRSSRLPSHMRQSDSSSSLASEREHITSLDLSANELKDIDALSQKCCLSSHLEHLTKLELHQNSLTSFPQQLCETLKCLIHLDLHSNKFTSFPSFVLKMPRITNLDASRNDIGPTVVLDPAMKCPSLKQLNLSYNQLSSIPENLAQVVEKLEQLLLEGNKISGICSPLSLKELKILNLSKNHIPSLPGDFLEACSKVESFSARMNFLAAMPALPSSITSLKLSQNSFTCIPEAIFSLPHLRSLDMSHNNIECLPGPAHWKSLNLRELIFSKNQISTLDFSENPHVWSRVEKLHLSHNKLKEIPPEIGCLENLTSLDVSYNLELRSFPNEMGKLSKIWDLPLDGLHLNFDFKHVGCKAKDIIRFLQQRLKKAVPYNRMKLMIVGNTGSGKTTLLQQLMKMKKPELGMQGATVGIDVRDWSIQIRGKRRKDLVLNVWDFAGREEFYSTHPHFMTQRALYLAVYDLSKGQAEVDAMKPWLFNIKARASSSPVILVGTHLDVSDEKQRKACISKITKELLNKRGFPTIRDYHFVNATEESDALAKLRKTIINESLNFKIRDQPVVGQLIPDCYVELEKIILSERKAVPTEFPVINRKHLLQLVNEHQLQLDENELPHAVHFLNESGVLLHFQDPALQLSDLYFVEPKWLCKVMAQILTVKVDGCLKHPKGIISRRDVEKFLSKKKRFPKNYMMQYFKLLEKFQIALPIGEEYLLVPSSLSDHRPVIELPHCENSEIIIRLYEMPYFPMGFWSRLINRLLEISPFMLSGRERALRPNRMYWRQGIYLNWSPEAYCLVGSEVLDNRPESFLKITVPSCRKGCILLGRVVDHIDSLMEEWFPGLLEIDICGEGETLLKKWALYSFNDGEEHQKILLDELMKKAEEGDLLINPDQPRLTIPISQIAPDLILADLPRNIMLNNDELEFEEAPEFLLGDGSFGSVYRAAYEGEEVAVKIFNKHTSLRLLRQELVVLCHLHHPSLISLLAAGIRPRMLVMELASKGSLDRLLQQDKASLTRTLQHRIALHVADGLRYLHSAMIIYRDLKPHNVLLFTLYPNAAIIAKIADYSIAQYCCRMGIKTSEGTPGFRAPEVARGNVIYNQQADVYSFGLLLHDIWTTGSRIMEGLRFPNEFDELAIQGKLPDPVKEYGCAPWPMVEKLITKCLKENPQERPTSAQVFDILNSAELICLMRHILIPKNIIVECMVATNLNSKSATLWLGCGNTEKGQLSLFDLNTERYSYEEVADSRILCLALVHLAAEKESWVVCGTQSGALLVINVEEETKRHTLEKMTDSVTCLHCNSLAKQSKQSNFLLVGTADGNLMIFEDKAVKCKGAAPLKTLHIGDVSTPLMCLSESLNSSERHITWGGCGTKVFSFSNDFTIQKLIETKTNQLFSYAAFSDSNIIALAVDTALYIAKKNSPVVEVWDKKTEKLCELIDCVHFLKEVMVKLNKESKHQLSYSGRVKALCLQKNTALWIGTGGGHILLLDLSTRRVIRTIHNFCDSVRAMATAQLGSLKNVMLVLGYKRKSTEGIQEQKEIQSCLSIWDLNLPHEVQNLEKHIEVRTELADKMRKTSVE
T1 sequence (Q5S006 whole entry): as the sequence (Q5S006 whole entry G2019S) above, with S2019G counted along it

CNc1nc(Nc2ccc(C(=O)N3CCN(CCOCCOCCSC(C)(C)[C@H](NC(=O)C4(F)CC4)C(=O)N4C[C@H](O)C[C@H]4C(=O)NCc4ccc(-c5scnc5C)cc4)CC3)cc2OC)ncc1Cl [SD75]
Dmax at 1 µM (WT LRRK2; 1 μM (1000 nM), read-out: Dmax (WT LRRK2), time-dependent degradation): 52%
Dmax (WT LRRK2; dose-dependent degradation, 24 h): 51%
Dmax at 1 µM (G2019S LRRK2; 1 μM (1000 nM), read-out: Dmax (G2019S LRRK2), time-dependent degradation): 81%
Dmax (G2019S LRRK2; 24 h, read-out: Dmax,24h (G2019S LRRK2)): 58%
WT-pRab10 percent label at the end of the time curve (Rab10-pThr73 [1]; 1 µM): 41%
EC50 (Rab10-pThr73 [1]; Mus musculus, 24 h, WT MEFs, read-out: EC50 for the dephosphorylation of Rab10 (WT-pRab10)): 2270 nM
GS-pRab10 percent label at the end of the time curve (Rab10-pThr73 [2]; 1 µM): 74%
pRab10 dephosphorylated (Rab10-pThr73 [2]; 1 µM): 75–90%
EC50 (Rab10-pThr73 [2]; Mus musculus, 24 h, G2019S LRRK2 MEFs, read-out: EC50 for the dephosphorylation of Rab10 (GS-pRab10)): 379 nM

CNc1nc(Nc2ccc(C(=O)N3CCN(C[C@H]4CC[C@H](CSC(C)(C)[C@H](NC(=O)C5(F)CC5)C(=O)N5C[C@H](O)CC5C(=O)NCc5ccc(-c6scnc6C)cc5)CC4)CC3)cc2OC)ncc1Cl (stereo partly drawn) [XL01126, (2S,4R)-1-((R)-3-((((1R,4R)-4-((4-(4-((5-Chloro-4-(methylamino)pyrimidin-2-yl)amino)-3-methoxybenzoyl)piperazin-1-yl)methyl)cyclohexyl)methyl)thio)-2-(1-fluorocyclopropane-1-carboxamido)-3-methylbutanoyl)-4-hydroxy-N-(4-(4-methylthiazol-5-yl)benzyl)pyrrolidine-2-carboxamide]
DC50 (WT LRRK2; 4 h): 32 nM
DC50 (G2019S LRRK2; 4 h): 14 nM
WT-pRab10 percent label at the end of the time curve (Rab10-pThr73 [1]; 0.3 µM): 94%
EC50 (Rab10-pThr73 [1]; Mus musculus, 4 h, WT MEFs, read-out: EC50 WT-pRab10): 54 nM
inhibition at 0.033 µM (Rab10-pThr73 [2]; Mus musculus, 33 nM/4 h, G2019S LRRK2 MEFs, read-out: pRab10 inhibited): > 60%
EC50 (Rab10-pThr73 [2]; [3]): 15 nM

CNc1nc(Nc2ccc(C(=O)N3CCN(C[C@H]4CC[C@@H](CSC(C)(C)[C@H](NC(=O)C5(F)CC5)C(=O)N5C[C@H](O)CC5C(=O)NCc5ccc(-c6scnc6C)cc5)CC4)CC3)cc2OC)ncc1Cl (some centres unmarked) [XL01134]
Dmax at 0.3 µM (WT LRRK2; 300 nM, read-out: Dmax,WT, time-dependent degradation): 75%
DC50 (WT LRRK2; 4 h): 32 nM
DC50 (G2019S LRRK2; 4 h): 7 nM
Dmax (G2019S LRRK2; 4 h, read-out: Dmax,4h (G2019S LRRK2)): 81%
WT-pRab10 percent label at the end of the time curve (Rab10-pThr73 [1]; 0.3 µM): 88%
IC50 (Rab10-pThr73 [1]; Mus musculus, 4 h, WT MEFs, read-out: WT-pRab10 IC50): 74 nM
pRab10 inhibited (Rab10-pThr73 [2]; 33 nM/4 h, G2019S LRRK2 MEFs): > 60%
IC50 (Rab10-pThr73 [2]; Mus musculus, 4 h, G2019S LRRK2 MEFs, read-out: GS-pRab10 IC50): 12 nM

CNc1nc(Nc2ccc(C(=O)N3CCN(C[C@H]4CC[C@H](CSC(C)(C)[C@H](NC(=O)C5(F)CC5)C(=O)N5C[C@@H](O)C[C@H]5C(=O)NCc5ccc(-c6scnc6C)cc5)CC4)CC3)cc2OC)ncc1Cl [cis-XL01126, (2S,4S)-1-((R)-3-((((1R,4R)-4-((4-(4-((5-Chloro-4-(methylamino)pyrimidin-2-yl)amino)-3-methoxybenzoyl)piperazin-1-yl)methyl)cyclohexyl)methyl)thio)-2-(1-fluorocyclopropane-1-carboxamido)-3-methylbutanoyl)-4-hydroxy-N-(4-(4-methylthiazol-5-yl)benzyl)pyrrolidine-2-carboxamide]
degradation of WT LRRK2 (in words) (WT LRRK2; 4 h): no degradation
degradation of G2019S LRRK2 (in words) (G2019S LRRK2; 4 h): no degradation
EC50 (Rab10-pThr73 [2]; [3]): 116 nM
